Paper PMC5933782, “Molecular structures of cdc2-like kinases in complex with a new inhibitor chemotype” (PLoS ONE, 2018)

Key:
CDK2/cyclin A = biological target: T1, CDK2/cyclin A (Homo sapiens, UniProt P24941); assay: radiometric protein kinase assay; format: biochemical; settings: 15 μmol/L ATP; read-out: IC50 CDK2/cyclinA
T1 construct: made in house

DYRK1A = DYRK1A (Homo sapiens, UniProt Q13627); assay: radiometric protein kinase assay; format: biochemical; settings: 15 μmol/L ATP; read-out: IC50 DYRK 1A
DYRK1B = DYRK1B (Homo sapiens, UniProt Q9Y463); assay: radiometric protein kinase assay; format: biochemical; settings: 15 μmol/L ATP; read-out: IC50 DYRK 1B
DYRK1B, sequence (Q9Y463 whole entry): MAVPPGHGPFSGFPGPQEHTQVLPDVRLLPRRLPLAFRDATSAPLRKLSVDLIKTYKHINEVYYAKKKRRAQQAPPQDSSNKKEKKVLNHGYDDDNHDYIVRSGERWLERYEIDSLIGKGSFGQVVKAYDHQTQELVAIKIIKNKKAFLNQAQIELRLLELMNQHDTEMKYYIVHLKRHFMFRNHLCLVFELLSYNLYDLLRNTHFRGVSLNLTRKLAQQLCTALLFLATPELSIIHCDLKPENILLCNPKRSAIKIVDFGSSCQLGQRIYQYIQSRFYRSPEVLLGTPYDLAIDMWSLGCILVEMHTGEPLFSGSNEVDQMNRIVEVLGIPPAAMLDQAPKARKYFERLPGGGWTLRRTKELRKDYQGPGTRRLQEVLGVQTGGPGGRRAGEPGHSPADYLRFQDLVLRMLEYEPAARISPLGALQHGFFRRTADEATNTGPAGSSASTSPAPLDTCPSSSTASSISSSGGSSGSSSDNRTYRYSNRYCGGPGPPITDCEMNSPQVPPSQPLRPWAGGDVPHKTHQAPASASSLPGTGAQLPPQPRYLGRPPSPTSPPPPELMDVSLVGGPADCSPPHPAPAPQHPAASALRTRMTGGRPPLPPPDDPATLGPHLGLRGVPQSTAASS

DYRK2 = biological target: T2, DYRK2 (Homo sapiens, UniProt Q92630); assay: radiometric protein kinase assay; format: biochemical; settings: 15 μmol/L ATP; read-out: IC50 DYRK 2
T2 sequence (Q92630 1-601): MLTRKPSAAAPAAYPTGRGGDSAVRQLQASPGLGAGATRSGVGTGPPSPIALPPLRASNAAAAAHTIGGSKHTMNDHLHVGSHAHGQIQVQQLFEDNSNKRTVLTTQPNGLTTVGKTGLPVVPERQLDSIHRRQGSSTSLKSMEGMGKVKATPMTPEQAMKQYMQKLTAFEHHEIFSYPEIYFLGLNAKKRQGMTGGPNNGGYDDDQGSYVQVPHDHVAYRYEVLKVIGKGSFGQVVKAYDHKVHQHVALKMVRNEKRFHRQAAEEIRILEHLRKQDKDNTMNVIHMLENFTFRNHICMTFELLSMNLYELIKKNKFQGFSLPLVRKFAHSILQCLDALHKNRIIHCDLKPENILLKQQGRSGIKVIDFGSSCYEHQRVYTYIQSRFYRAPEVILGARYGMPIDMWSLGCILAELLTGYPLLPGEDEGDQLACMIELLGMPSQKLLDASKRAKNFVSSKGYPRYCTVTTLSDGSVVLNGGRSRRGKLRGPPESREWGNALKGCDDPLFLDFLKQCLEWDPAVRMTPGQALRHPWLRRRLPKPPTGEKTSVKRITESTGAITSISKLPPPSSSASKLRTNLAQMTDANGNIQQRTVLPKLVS

GSK-3 = assay: radiometric protein kinase assay; format: biochemical, porcine; settings: 15 μmol/L ATP; read-out: IC50 GSK3
786–0 = assay: NCI cancer cell line screening; format: cell-based; settings: Homo sapiens; 786–0, Renal Cancer
Procedure: (§1) Being the most promising compound in terms of CLK1 inhibitory potency and selectivity, KuWal151 (8c) was tested in the National Cancer Institute cancer cell line screening on 57 tumor cell lines of different tissue origin [45]. With only a few exceptions, KuWal151 inhibited the growth of most cell lines in submicromolar concentrations. In Table 2 the cancer cell line inhibition data is listed with the expression rates of SPF45 and CLK1 as indicated in the Expression Atlas database (https://www.ebi.ac.uk/gxa/home). Apparently the cell lines with high levels of CLK1 encoding RNA are inhibited over average. […] However, the available data are not sufficient to construe a clear relationship between the expression levels of the putative target CLK1 and sensitivity of the cell lines against 8c. The same holds true for SPF45, an important substrate of CLK1 involved in splicing which is found to be overexpressed in many cancer cell lines. […] The lack of a straight relationship between CLK1 and/or SPF45 expression levels on the one hand and sensitivity against the CLK1 inhibitor 8c on the other hand may have various reasons, e.g. different uptake rates of the inhibitor by the cells or alternative intracellular targets. For verification of the results from the NCI screening, which is based on the in situ fixation of cells followed by staining with the protein-binding dye sulforhodamin B [47, 48], 8c was also tested on two cell lines of the NCI panel (HT-29 and MDA-MB-231) in a crystal violet assay.

A549/ATCC = assay: NCI cancer cell line screening; format: cell-based; settings: Homo sapiens, Non-Small Cell Lung Cancer
Procedure: as §1

ACHN = assay: NCI cancer cell line screening; format: cell-based; settings: Homo sapiens, Renal Cancer
Procedure: as §1

CCRF-CEM = assay: NCI cancer cell line screening; format: cell-based; settings: Homo sapiens, Leukemia
Procedure: as §1

HL-60(TB) = assay: NCI cancer cell line screening; format: cell-based; settings: Homo sapiens, Leukemia
Procedure: as §1

HOP-92 = assay: NCI cancer cell line screening; format: cell-based; settings: Homo sapiens; HOP-92, Non-Small Cell Lung Cancer
Procedure: as §1

HS 578T = assay: NCI cancer cell line screening; format: cell-based; settings: Homo sapiens, Breast Cancer
Procedure: as §1

LOX IMVI = assay: NCI cancer cell line screening; format: cell-based; settings: Homo sapiens, Melanoma
Procedure: as §1

MOLT-4 = assay: NCI cancer cell line screening; format: cell-based; settings: Homo sapiens; MOLT-4, Leukemia
Procedure: as §1

NCI-H23 = assay: NCI cancer cell line screening; format: cell-based; settings: Homo sapiens; NCI-H23, Non-Small Cell Lung Cancer
Procedure: as §1

NCI-H322M = assay: NCI cancer cell line screening; format: cell-based; settings: Homo sapiens, Non-Small Cell Lung Cancer
Procedure: as §1

NCI-H522 = assay: NCI cancer cell line screening; format: cell-based; settings: Homo sapiens; NCI-H522, Non-Small Cell Lung Cancer
Procedure: as §1

OVCAR-4 = assay: NCI cancer cell line screening; format: cell-based; settings: Homo sapiens; OVCAR-4, Ovarian Cancer
Procedure: as §1

OVCAR-8 = assay: NCI cancer cell line screening; format: cell-based; settings: Homo sapiens; OVCAR-8, Ovarian Cancer
Procedure: as §1

SK-MEL-5 = assay: NCI cancer cell line screening; format: cell-based; settings: Homo sapiens; SK-MEL-5, Melanoma
Procedure: as §1

SN12C = assay: NCI cancer cell line screening; format: cell-based; settings: Homo sapiens, Renal Cancer
Procedure: as §1

SNB-19 = assay: NCI cancer cell line screening; format: cell-based; settings: Homo sapiens; SNB-19, CNS Cancer
Procedure: as §1

TK-10 = assay: NCI cancer cell line screening; format: cell-based; settings: Homo sapiens; TK-10, Renal Cancer
Procedure: as §1

UACC-62 = assay: NCI cancer cell line screening; format: cell-based; settings: Homo sapiens; UACC-62, Melanoma
Procedure: as §1

CLK1 = CLK1 (Mus musculus, UniProt P22518); assay: radiometric protein kinase assay
CLK1, sequence (P22518 whole entry): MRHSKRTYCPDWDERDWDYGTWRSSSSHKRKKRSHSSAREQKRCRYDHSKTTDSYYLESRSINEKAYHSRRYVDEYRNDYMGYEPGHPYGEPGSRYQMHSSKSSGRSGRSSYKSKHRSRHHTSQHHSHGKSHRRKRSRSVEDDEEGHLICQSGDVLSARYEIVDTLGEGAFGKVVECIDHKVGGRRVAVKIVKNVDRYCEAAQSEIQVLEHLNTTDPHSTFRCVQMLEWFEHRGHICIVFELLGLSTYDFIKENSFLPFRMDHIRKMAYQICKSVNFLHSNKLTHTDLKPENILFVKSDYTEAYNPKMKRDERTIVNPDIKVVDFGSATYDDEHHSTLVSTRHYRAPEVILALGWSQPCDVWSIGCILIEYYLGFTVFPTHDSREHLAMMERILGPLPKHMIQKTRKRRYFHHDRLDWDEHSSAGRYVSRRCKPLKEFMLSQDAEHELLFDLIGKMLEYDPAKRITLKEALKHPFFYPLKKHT

CLK2 = CLK2 (Mus musculus, UniProt O35491); assay: radiometric protein kinase assay
CLK2, sequence (O35491 whole entry): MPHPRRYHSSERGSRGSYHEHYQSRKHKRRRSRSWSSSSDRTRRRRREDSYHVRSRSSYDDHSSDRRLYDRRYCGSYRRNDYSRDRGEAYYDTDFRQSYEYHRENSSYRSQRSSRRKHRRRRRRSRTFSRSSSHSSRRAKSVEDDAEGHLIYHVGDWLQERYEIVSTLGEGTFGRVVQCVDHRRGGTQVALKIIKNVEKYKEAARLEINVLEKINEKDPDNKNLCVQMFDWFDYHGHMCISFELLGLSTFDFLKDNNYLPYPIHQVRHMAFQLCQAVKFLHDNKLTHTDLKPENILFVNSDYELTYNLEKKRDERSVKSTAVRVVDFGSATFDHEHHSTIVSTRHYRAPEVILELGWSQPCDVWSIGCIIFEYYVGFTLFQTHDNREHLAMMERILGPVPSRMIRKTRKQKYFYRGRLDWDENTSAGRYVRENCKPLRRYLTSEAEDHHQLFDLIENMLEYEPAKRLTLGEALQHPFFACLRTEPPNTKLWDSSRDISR

CLK3 = CLK3 (Mus musculus, UniProt O35492); assay: radiometric protein kinase assay
CLK3, sequence (O35492 whole entry): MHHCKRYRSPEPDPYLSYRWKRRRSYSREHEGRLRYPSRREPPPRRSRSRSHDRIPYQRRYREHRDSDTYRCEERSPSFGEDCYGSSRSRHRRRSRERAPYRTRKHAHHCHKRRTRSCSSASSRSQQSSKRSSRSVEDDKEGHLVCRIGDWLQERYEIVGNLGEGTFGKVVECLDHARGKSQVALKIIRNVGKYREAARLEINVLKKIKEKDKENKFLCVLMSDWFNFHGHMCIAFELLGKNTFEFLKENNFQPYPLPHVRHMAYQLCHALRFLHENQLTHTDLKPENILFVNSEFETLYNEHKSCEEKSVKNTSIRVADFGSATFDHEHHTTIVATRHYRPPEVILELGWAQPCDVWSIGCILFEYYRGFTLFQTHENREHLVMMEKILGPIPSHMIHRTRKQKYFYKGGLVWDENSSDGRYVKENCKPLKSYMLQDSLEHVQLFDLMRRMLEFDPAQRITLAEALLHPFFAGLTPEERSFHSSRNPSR
Procedure: Buffers. Buffer A: 10 mM MgCl2, 1 mM EGTA, 1 mM DTT, 25 mM Tris-HCl pH 7.5, 50 μg heparin/mL. Buffer C: 60 mM β-glycerophosphate, 15 mM p-nitrophenylphosphate, 25 mM MOPS (pH 7.2), 15 mM EGTA, 15 mM MgCl2, 1 mM DTT, 1 mM sodium vanadate, 1 mM phenylphosphate.
Kinase activities were assayed in buffer A or C at 30°C at a final ATP concentration of 15 μmol/L. Blank values were subtracted and activities were expressed in percent of the maximal activity, i.e. in the absence of inhibitors. Controls were performed with appropriate dilutions of DMSO.
Their kinase activity was assayed in buffer A, with 1 mg histone H1/mL, in the presence of 15 μmol/L [γ-33P] ATP (3,000 Ci/mmol; 10 mCi/mL) in a final volume of 30 μL. After 30 min incubation at 30°C, the reaction was stopped by harvesting onto P81 phosphocellulose supernatant (Whatman) using a FilterMate harvester (Packard) and washing in 1% phosphoric acid. Scintillation fluid was added and the radioactivity measured in a Packard counter.
All data points for construction of dose response curves were recorded in triplicate.

CLK4 = CLK4 (Mus musculus, UniProt O35493); assay: radiometric protein kinase assay
CLK4, sequence (O35493 whole entry): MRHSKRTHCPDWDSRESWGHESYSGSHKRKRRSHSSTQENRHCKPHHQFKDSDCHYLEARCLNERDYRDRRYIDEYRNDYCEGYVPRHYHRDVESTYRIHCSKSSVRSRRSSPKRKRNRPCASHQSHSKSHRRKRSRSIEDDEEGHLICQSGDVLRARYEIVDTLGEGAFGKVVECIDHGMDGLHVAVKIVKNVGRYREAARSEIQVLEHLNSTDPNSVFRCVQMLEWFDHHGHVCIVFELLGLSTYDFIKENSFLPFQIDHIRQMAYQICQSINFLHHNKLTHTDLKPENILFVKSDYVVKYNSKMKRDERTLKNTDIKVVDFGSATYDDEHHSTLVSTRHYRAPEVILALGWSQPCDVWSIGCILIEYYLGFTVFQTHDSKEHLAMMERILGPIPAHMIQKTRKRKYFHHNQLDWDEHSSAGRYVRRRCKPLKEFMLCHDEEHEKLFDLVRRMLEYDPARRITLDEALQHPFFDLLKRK

`O=C1NCc2ccc3c(-c4cccc(Cl)c4)c[nH]c3c21` [8c, 3-(3-Chlorophenyl)-6,7-dihydropyrrolo[3,4-g]indol-8(1H)-one] was tested, and the IC50 (CDK2/cyclin A) was over 10000 nM, the IC50 (DYRK1A) was over 10000 nM and the IC50 (DYRK1B) was over 10000 nM. It also gave an IC50 (DYRK2) of over 10000 nM, an IC50 (GSK-3) of over 10000 nM and a GI50 (786–0) of 275 nM. For the same molecule, the GI50 (A549/ATCC) was 389 nM, the GI50 (ACHN) was 372 nM and the GI50 (CCRF-CEM) was 178 nM. The GI50 (HL-60(TB)) was 141 nM, the GI50 (HOP-92) was 5620 nM and the GI50 (HS 578T) was 204 nM. The GI50 (LOX IMVI) was 245 nM, the GI50 (MOLT-4) was 257 nM and the GI50 (NCI-H23) was 525 nM. The GI50 (NCI-H322M) was 2390 nM, the GI50 (NCI-H522) was 158 nM and the GI50 (OVCAR-4) was 912 nM. For the same molecule, the GI50 (OVCAR-8) was 724 nM, the GI50 (SK-MEL-5) was 407 nM and the GI50 (SN12C) was 331 nM. The GI50 (SNB-19) was 389 nM, the GI50 (TK-10) was 10200 nM and the GI50 (UACC-62) was 275 nM. It also gave an IC50 (CLK1) of 88 nM, an IC50 (CLK2) of 510 nM and an IC50 (CLK3) of over 10000 nM. For the same molecule, the IC50 (CLK4) was 28 nM.
